Measured values published in US12383534B2, “Methods for treating cancer” (REGENTS OF THE UNIVERSITY OF MINNESOTA, priority 2021, dated 2025).

Key:
NCC-CDS-X1 cells = assay: EdU incorporation (FACS) in NCC-CDS-X1 cells; assay type: cell-based, human
Experimental: EdU labeling and visualization was done using Click-iT® EdU Flow Cytometry Assay Kit (Thermo Fisher Scientific). Briefly, 1×10^5 NCC-CDS-X1 cells were plated in each well of a 24-well plate. The following day, continual treatment with 0.3 μM iP300w was initiated. For the pulse experiment, cells were treated with iP300w for 4 or 24 hours and analyzed 24 hours later. Cells were cultured with EdU ([…]) in the last 4 hours of the experiment, and samples were prepared for analyses according to the manufacture's instruction. FACS analyses were performed on a BD FACSAria instrument and data was analyzed using FlowJo (BD Biosciences). Experiments were performed on at least three biological replicates.

[1] = Cell viability (ATP) assay in colorectal cancer cells; assay type: cell-based; details: cancer and colorectal cell lines expected to have a general p300/CBP dependence
Experimental: (§1) Cell lines were plated in a 96 well dish (1×10^5 cells/well), and the following day were treated with iP300w or its stereoisomers. ATP assays were performed using CellTiter-Glo® Luminescent Cell Viability Assay (Promega) according to the manufacturer's instructions. Luminescence was analyzed on POLARstar Optima Microplate Reader (BMG Labtech, Offenburg, Germany).
(§2) Pancreatic and colorectal cancer cell lines were treated with iP300w to further distinguish its specificity to CDS from general cytotoxicity. p300/CBP have been correlated with the invasive and migratory properties of pancreatic and colorectal cancers (Iyer, N. G. et al., Proceedings of the National Academy of Sciences of the United States of America 101, 7386-7391 (2004); and Paladino, D. et al, Oncotarget 7, 7253-7267 (2016)). […] This further supports the specific efficacy of iP300w against cancers bearing p300-dependent oncogenic fusion transcription factors (such as CIC-DUX4), vis-à-vis cancers that may show some degree of growth inhibition by iP300w due simply to p300-dependent proliferative pathways.

[2] = system: HTC116, MKN28, KATO3 colorectal cancer cells; assay: as above; assay type: cell-based; details: serial dilutions, 48 hours
Experimental: as §1, §2

[3] = system: NCC-CDS-X1 subcutaneous xenograft tumors; assay: NCC-CDS-X1 xenograft tumor growth in mice; assay type: in vivo, mouse; details: 1.4 mg/kg b.i.d. intraperitoneally from day 9, 12 days
Experimental: Mice were maintained, and in vivo experiments were conducted at the University of Minnesota Research Animal Resources facility, under a protocol (1903-36866A) approved by IACUC. Immunodeficient NSG-MDX mice (n=8) were transplanted with 1×10^7 NCC-CDS-X1 cells resuspended in 100 uL of a mixture of medium and Matrigel (Corning). Visible tumor masses at the sites of injection were detected on day 9 after transplantation. All the injected mice developed tumors. At this point, the mice were randomized into two groups, control and iP300w treated, and initial measurement of the tumors was performed. iP300w was initially dissolved in DMSO at 10 mM and then diluted in 100 uL PBS. Each mouse received 1.4 mg/kg iP300w intraperitoneally twice daily or vehicle in the control group. Tumor size was recorded every 4 days and the volume was calculated using the formula (length×width^2)/2.
Finally, the effectiveness of iP300w to suppress CDS tumor growth in vivo was assessed. NCC-CDS-X1 cells were used to generate subcutaneous xenograft tumors in immunodeficient NSG mice (n=8). When tumors were palpable (day 9) iP300w injections (1.4 mg/kg b.i.d.) were initiated and the progression of tumor growth was monitored.

[4] = system: global H3K18 and H3K27 acetylation; assay: Western blot for H3 acetylation markers in NCC-CDS-X1 cells; assay type: cell-based, human; details: NCC-CDS-X1, 18 hours
Experimental: For western blot analyses, cells were lysed with RIPA buffer supplemented with protease inhibitor cocktail (Complete, Roche), and proteins were separated on 10% SDS-PAGE gels, then transferred to PVDF membranes. Antibodies were diluted in 5% skim milk in TBST and incubated overnight at 4° C. or 1 hour at RT. An appropriate secondary HRP conjugated antibody was incubated for 1 hour at RT. Membranes were then washed with TBST, and signal was visualized using Pierce ECL western blotting substrate (Thermo Scientific). For immunofluorescence, cells cultured in 96 well plates were fixed in 4% PFA for 10 min., washed twice with PBS, permeabilized with 0.3% Triton X for 30 min, and blocked with 3% BSA for 1 hour at R/T. Primary antibodies were diluted in 3% BSA and incubated o/n at 4° C. An appropriate conjugated secondary antibody was applied for 60 min at RT. Nuclei were visualized using DAPI (1:5000, Sigma). […]

p300 and CBP = details: in vitro and in vivo; cited from earlier work

In the case of CNC(=O)Cn1cc(-c2ccc3c(c2)[C@H](F)C[C@]32NC(=O)N(CC(=O)N(Cc3ccc(F)cc3)[C@@H](C)C(F)(F)F)C2=O)cn1 (single isomer, unassigned) [iP300w], the “proliferation rate after 4-hour pulse” value (NCC-CDS-X1 cells; 0.3 μM 4-hour pulse, measured 20 hours later) is reported as “significantly reduced proliferation rate”, the “cell cycle recovery after 24-hour pulse” value (NCC-CDS-X1 cells; 0.3 μM treated for 24 hours, 48 hours after the pulse) is reported as “not able to restore the cell cycle” and the “EdU labeling of proliferating cells” value (NCC-CDS-X1 cells; continual treatment 0.3 μM, 48 hours) is reported as “virtually no cells were labelled”. The “concentration at which growth inhibition is first observed” value [1] was at least 0.3 µM, the “effect on cell viability” value [2] was “no significant effect on cell viability” and the “treated mice with tumor growth halted” value [3] was 5/8. For the same compound, the “treated mice with tumor growth significantly diminished” value [3] was 3/8, the “effect on global H3K18 and H3K27 acetylation” value [4] was “reduces global H3K18 and H3K27 acetylation” and the “inhibition of acetylation by p300 and CBP” value (p300 and CBP) was “inhibit acetylation by p300 and CBP both in vitro and in vivo”.
